In US7799809B2, “Carboxamide compounds and their use as calpain inhibitors” (Abbott GmbH & Co. KG, priority 2006, dated 2010):

Key:
Assay type in all cases: biochemical
[1] = target: T1, cathepsin B (Homo sapiens, UniProt P07858); test: Cathepsin B enzyme inhibition in vitro (kinetic fluorescence assay); details: cathepsin B isolated from human liver vs calpain I
T1 construct: cathepsin B—isolated from human liver (Calbiochem #219362); purchased Calbiochem 219362; host or cells: human liver (tissue-derived)
Outline: (§1)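 Kinetic fluorescence (ex 390/em 460 nm) at room temperature in 50 mM MES, 2 mM EDTA, 0.05% Brij 35, 2.5 mM L-cysteine, pH 6.0. Cathepsin B (liver, 0.25 nM) with 100 μM Z-Phe-Arg-AMC; cathepsin L (liver, 1 nM) with 2 μM Z-Phe-Arg-AMC; recombinant E. coli cathepsin S (0.5 nM) with 20 μM Z-Val-Val-Arg-AMC. Ki via Cheng-Prusoff.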

[2] = target: T2, cathepsin K (Homo sapiens, UniProt P43235); test: Cathepsin K enzyme inhibition in vitro (kinetic fluorescence assay); details: cathepsin K activated from recombinant human procathepsin K vs calpain I
T2 construct: purchased Calbiochem 342001; host or cells: E. coli
T2 sequence (P43235 115-329): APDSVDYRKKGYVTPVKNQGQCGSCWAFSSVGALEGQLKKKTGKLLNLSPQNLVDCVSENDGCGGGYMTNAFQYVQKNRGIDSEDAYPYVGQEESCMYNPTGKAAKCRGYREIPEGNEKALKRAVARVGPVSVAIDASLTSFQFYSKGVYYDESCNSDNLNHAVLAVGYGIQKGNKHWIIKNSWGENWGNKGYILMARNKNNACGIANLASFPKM

[3] = target: T3, cathepsin L (Homo sapiens, UniProt P07711); test: Cathepsin L enzyme inhibition in vitro (kinetic fluorescence assay); details: cathepsin L isolated from human liver vs calpain I
T3 construct: cathepsin L—isolated from human liver (Calbiochem #219402); purchased Calbiochem 219402; host or cells: human liver (tissue-derived)
T3 sequence (P07711 114-333): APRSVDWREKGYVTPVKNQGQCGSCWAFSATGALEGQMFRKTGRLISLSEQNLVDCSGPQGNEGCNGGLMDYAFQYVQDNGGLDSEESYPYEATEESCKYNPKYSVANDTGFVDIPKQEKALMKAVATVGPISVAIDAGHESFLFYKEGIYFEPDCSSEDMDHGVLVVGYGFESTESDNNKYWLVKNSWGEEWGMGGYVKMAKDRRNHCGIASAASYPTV
Outline: as §1

[4] = target: T4, cathepsin S (Homo sapiens, UniProt P25774); test: Cathepsin S enzyme inhibition in vitro (kinetic fluorescence assay); details: recombinant human cathepsin S vs calpain I
T4 construct: purchased Calbiochem 219343; host or cells: E. coli
T4 sequence (P25774 115-331): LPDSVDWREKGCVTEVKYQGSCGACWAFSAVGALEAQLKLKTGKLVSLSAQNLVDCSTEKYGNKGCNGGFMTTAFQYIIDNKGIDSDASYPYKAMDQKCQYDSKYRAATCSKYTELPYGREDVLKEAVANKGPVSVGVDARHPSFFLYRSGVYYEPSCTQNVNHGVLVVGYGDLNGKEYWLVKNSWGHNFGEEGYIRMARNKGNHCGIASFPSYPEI
Outline: as §1

Row | Molecule | Sel cat. B: Ki(cathepsin B)/Ki(calpain) ratio [1] | Sel cat. K: Ki(cathepsin K)/Ki(calpain) ratio [2] | Sel cat. L: Ki(cathepsin L)/Ki(calpain) ratio [3] | Sel cat. S: Ki(cathepsin S)/Ki(calpain) ratio [4]
1 | COc1ccc(CC(NC(=O)c2cccnc2-n2ccc(-c3ccc4c(c3)OC(F)(F)O4)n2)C(=O)C(N)=O)cc1 (centres unmarked) [Example 137, N-(3-Amino-1-{[4-(methyloxy)phenyl]methyl}-2,3-dioxopropyl)-2-[3-(2,2-difluoro-1,3-benzodioxol-5-yl)-1H-pyrazol-1-yl]pyridine-3-carboxamide] | + (+ means 10≦Ki(cathepsin B)/Ki(calpain)<30) | + (+ means 10≦Ki(cathepsin K)/Ki(calpain)<30) | ++ (++ means a Ki(cathepsin L)/Ki(calpain) ratio of ≧50) | ++ (++ means a Ki(cathepsin S)/Ki(calpain) ratio of ≧100)
2 | COc1ccc(CC(NC(=O)c2cccnc2-n2ccc(-c3cccc(F)c3Cl)n2)C(=O)C(N)=O)cc1 (centres unmarked) [Example 157, N-(3-Amino-1-{[4-(methyloxy)phenyl]methyl}-2,3-dioxopropyl)-2-[3-(2-chloro-3-fluorophenyl)-1H-pyrazol-1-yl]pyridine-3-carboxamide] | ++ (++ means a Ki(cathepsin B)/Ki(calpain) ratio of ≧30) | ++ (++ means a Ki(cathepsin K)/Ki(calpain) ratio of ≧30) | ++ (++ means a Ki(cathepsin L)/Ki(calpain) ratio of ≧50) | ++ (++ means a Ki(cathepsin S)/Ki(calpain) ratio of ≧100)
3 | NC(=O)C(=O)C(Cc1ccccc1)NC(=O)c1cccnc1-n1cc2c(n1)-c1ccccc1SC2 (centres unmarked) [Example 173, N-[3-Amino-2,3-dioxo-1-(phenylmethyl)propyl]-2-thiochromeno[4,3-c]pyrazol-2(4H)-ylpyridine-3-carboxamide] | + (+ means 10≦Ki(cathepsin B)/Ki(calpain)<30) | + (+ means 10≦Ki(cathepsin K)/Ki(calpain)<30) | ++ (++ means a Ki(cathepsin L)/Ki(calpain) ratio of ≧50) | ++ (++ means a Ki(cathepsin S)/Ki(calpain) ratio of ≧100)
4 | NC(=O)C(=O)C(Cc1ccccc1)NC(=O)c1cccnc1-n1ccc(-c2ccccc2OC(F)(F)F)n1 (centres unmarked) [Example 124, N-[3-Amino-2,3-dioxo-1-(phenylmethyl)propyl]-2-(3-{2-[(trifluoromethyl)oxy]phenyl}-1H-pyrazol-1-yl)pyridine-3-carboxamide] | ++ (++ means a Ki(cathepsin B)/Ki(calpain) ratio of ≧30) | ++ (++ means a Ki(cathepsin K)/Ki(calpain) ratio of ≧30) | ++ (++ means a Ki(cathepsin L)/Ki(calpain) ratio of ≧50) | ++ (++ means a Ki(cathepsin S)/Ki(calpain) ratio of ≧100)
5 | N-{3-Amino-1-[(4-fluorophenyl)methyl]-2,3-dioxopropyl}-2-[3-(2-chloro-3-fluorophenyl)-1H-pyrazol-1-yl]pyridine-3-carboxamide [Example 154] | ++ (++ means a Ki(cathepsin B)/Ki(calpain) ratio of ≧30) | ++ (++ means a Ki(cathepsin K)/Ki(calpain) ratio of ≧30) | ++ (++ means a Ki(cathepsin L)/Ki(calpain) ratio of ≧50) | ++ (++ means a Ki(cathepsin S)/Ki(calpain) ratio of ≧100)
6 | COc1ccc(CC(NC(=O)c2cccnc2-n2ccc(-c3cccc(Cl)c3Cl)n2)C(=O)C(N)=O)cc1 (centres unmarked) [Example 153, N-(3-Aamino-1-{[4-(methyloxy)phenyl]methyl}-2,3-dioxopropyl)-2-[3-(2,3-dichlorophenyl)-1H-pyrazol-1-yl]pyridine-3-carboxamide] | ++ (++ means a Ki(cathepsin B)/Ki(calpain) ratio of ≧30) | ++ (++ means a Ki(cathepsin K)/Ki(calpain) ratio of ≧30) | ++ (++ means a Ki(cathepsin L)/Ki(calpain) ratio of ≧50) | ++ (++ means a Ki(cathepsin S)/Ki(calpain) ratio of ≧100)
7 | NC(=O)C(=O)C(Cc1ccccc1)NC(=O)c1cccnc1-n1ccc(-c2ccc(Cl)s2)n1 (centres unmarked) [Example 103, N-[3-Amino-2,3-dioxo-1-(phenylmethyl)propyl]-2-[3-(5-chloro-2-thienyl)-1H-pyrazol-1-yl]pyridine-3-carboxamide] | + (+ means 10≦Ki(cathepsin B)/Ki(calpain)<30) | + (+ means 10≦Ki(cathepsin K)/Ki(calpain)<30) | ++ (++ means a Ki(cathepsin L)/Ki(calpain) ratio of ≧50) | ++ (++ means a Ki(cathepsin S)/Ki(calpain) ratio of ≧100)
8 | Cc1ccccc1-c1ccn(-c2ncccc2C(=O)NC(Cc2ccccc2)C(=O)C(N)=O)n1 (centres unmarked) [Example 93, N-[3-Amino-2,3-dioxo-1-(phenylmethyl)propyl]-2-[3-(2-methylphenyl)-1H-pyrazol-1-yl]pyridine-3-carboxamide] | ++ (++ means a Ki(cathepsin B)/Ki(calpain) ratio of ≧30) | + (+ means 10≦Ki(cathepsin K)/Ki(calpain)<30) | ++ (++ means a Ki(cathepsin L)/Ki(calpain) ratio of ≧50) | ++ (++ means a Ki(cathepsin S)/Ki(calpain) ratio of ≧100)
9 | Cl.NC(=O)C(=O)C(Cc1cccnc1)NC(=O)c1cccnc1-n1ccc(-c2ccccc2)n1 (centres unmarked) [Example 88, N-[3-Amino-2,3-dioxo-1-(pyridin-3-ylmethyl)propyl]-2-(3-phenyl-1H-pyrazol-1-yl)pyridine-3-carboxamide hydrochloride] | + (+ means 10≦Ki(cathepsin B)/Ki(calpain)<30) | ++ (++ means a Ki(cathepsin K)/Ki(calpain) ratio of ≧30) | ++ (++ means a Ki(cathepsin L)/Ki(calpain) ratio of ≧50) | ++ (++ means a Ki(cathepsin S)/Ki(calpain) ratio of ≧100)
10 | NC(=O)C(=O)C(Cc1ccccc1)NC(=O)c1cccnc1-n1ccc(-c2cccs2)n1 (centres unmarked) [Example 55, N-(3-Amino-1-benzyl-2,3-dioxopropyl)-2-[3-(2-thienyl)-1H-pyrazol-1-yl]nicotinamide] | + (+ means 10≦Ki(cathepsin B)/Ki(calpain)<30) | + (+ means 10≦Ki(cathepsin K)/Ki(calpain)<30) | ++ (++ means a Ki(cathepsin L)/Ki(calpain) ratio of ≧50) | ++ (++ means a Ki(cathepsin S)/Ki(calpain) ratio of ≧100)
11 | NC(=O)C(=O)C(Cc1ccccc1)NC(=O)c1cccnc1-n1ccc(-c2cccc(OCc3ccccc3)c2)n1 (centres unmarked) [Example 96, N-[3-Amino-2,3-dioxo-1-(phenylmethyl)propyl]-2-(3-{3-[(phenylmethyl)oxy]phenyl}-1H-pyrazol-1-yl)pyridine-3-carboxamide] | ++ (++ means a Ki(cathepsin B)/Ki(calpain) ratio of ≧30) | ++ (++ means a Ki(cathepsin K)/Ki(calpain) ratio of ≧30) | ++ (++ means a Ki(cathepsin L)/Ki(calpain) ratio of ≧50) | ++ (++ means a Ki(cathepsin S)/Ki(calpain) ratio of ≧100)
